Test results from ChEMBL document CHEMBL1201862, “PubChem BioAssay data set” (2004).
Active and inactive are the calls of the source.

Legend:
[1] = tested on: Streptococcus sp. 'group A'; assay: growth inhibition of control SK(-) GAS strain, dose response, counter-screen for streptokinase expression inhibitor project, luminescence, kanamycin, BacTiterGlo, confirmation (AID 1900); format: functional, organism-based
[2] = tested on: Streptococcus; assay: Group A Streptococcus viability loss, dose response, counter-screen for streptokinase expression inhibitor project, luminescence, BacTiterGlo (AID 1915); format: functional, organism-based;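 further: potency for reduction of bacterial viability or growth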
[3] = target: T1, Streptokinase A (Streptococcus pyogenes serotype M1, UniProt P10520); assay: S. pyogenes streptokinase expression inhibitors, potency, dose response, plasminogen activation absorbance, OD405 (AID 1914); format: functional, Streptococcus pyogenes M1 GAS;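 further: secreted streptokinase activity via plasminogen activation per viability signal from cell pellet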
T1 sequence (P10520 whole entry): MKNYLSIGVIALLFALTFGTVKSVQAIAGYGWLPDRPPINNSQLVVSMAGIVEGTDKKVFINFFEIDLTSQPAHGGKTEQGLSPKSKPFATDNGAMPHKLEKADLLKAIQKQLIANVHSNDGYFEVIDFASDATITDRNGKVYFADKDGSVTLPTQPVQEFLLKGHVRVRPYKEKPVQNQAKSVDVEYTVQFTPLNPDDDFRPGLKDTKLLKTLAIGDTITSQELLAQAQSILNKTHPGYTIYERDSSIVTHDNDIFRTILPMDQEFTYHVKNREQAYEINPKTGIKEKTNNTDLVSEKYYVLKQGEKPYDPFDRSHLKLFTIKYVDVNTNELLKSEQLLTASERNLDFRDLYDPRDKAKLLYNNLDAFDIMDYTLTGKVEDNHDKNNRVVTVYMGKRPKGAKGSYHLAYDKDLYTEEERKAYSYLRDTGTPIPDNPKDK

[4] = tested on: H9c2; assay: cells; format: functional, cell-based; settings: Rattus norvegicus, H9c2, Myocardium;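 further: confirmatory concentration-response retest of ultra-high-throughput screening hits for modulation of myocardial damage; cell death induced by hydrogen peroxide oxidative stress; compound pretreatment for 60 min then peroxide exposure for 2 h; potency is for protecting the cells against peroxide damage rather than for killing them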
[5] = target: FAD-linked sulfhydryl oxidase ALR (Homo sapiens, UniProt P55789); assay: inhibitors of human ALR sulfhydryl oxidase, dose response, biochemical, H2O2 detection, luminescence, cherry-pick (AID 493248)
[6] = inhibitors of intracellular T. cruzi replication, confirmation, NIH3T3 host cells, beta-gal luminescence (AID 2044); format: functional, cell-based;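 further: intracellular parasites grown in NIH/3T3 mouse fibroblasts as host cells; luminescent beta-galactosidase reporter signal from transgenic T. cruzi replicating inside host cells; inhibitors lower the luminescence signal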
[7] = cytotoxicity toward NIH3T3 fibroblasts, dose response, counter-screen, cell-based, ATP luminescence, mouse fibroblasts (AID 2010); format: functional;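 further: cells exposed to compound for about 90 hours before reading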
[8] = target: T2, Corticotropin-releasing factor receptor 2/Corticotropin-releasing factor-binding protein (Homo sapiens, UniProt P24387+Q13324); assay: activators of CRF receptor 2 with binding protein – uHTS hits, confirmation (AID 602473); format: functional; settings: read-out: EC50_Mean
T2 sequence (Q13324 whole entry): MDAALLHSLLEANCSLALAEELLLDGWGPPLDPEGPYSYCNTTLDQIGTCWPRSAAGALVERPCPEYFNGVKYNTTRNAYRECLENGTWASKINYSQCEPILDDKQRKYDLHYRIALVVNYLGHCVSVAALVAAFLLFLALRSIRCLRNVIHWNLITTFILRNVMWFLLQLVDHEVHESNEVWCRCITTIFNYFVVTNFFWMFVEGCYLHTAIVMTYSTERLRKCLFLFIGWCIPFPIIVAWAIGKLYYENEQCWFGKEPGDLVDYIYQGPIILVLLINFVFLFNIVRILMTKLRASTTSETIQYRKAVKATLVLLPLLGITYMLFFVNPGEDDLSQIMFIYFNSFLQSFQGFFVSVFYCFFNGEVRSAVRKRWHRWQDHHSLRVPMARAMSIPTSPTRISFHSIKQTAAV
T2 sequence (P24387 whole entry): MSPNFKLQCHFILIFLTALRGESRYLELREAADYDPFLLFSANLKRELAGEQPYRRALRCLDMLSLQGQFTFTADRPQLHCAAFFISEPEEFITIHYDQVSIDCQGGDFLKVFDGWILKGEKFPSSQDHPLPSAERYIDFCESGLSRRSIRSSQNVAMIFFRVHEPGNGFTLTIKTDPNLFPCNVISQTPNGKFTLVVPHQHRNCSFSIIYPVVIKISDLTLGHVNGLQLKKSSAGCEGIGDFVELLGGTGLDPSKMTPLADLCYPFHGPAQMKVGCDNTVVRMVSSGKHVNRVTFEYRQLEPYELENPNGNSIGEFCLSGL

[9] = target: Cytochrome P450 2D6 (Homo sapiens, UniProt P10635);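 further: CYP2D6 member of a cytochrome P450 panel assay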
[10] = target: T3, Cytochrome P450 1A2 (Homo sapiens, UniProt P05177);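 further: PubChem cytochrome P450 panel assay, CYP1A2 panel member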
T3 sequence (P05177 whole entry): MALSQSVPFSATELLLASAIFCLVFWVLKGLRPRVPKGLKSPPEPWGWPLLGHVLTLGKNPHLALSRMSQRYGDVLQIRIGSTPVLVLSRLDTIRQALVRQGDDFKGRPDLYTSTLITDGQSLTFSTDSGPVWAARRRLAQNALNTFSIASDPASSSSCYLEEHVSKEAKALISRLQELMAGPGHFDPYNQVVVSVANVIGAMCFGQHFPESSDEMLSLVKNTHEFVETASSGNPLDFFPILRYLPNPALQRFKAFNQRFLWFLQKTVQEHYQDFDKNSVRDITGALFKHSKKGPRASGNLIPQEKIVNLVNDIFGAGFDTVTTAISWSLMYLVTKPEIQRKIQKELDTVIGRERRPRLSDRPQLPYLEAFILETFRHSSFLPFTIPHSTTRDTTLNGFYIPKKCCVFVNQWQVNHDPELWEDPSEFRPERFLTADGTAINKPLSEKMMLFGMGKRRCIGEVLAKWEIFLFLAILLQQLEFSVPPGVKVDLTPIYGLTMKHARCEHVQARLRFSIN

[11] = target: T4, Rac GTPase-activating protein 1 (Homo sapiens, UniProt Q9H0H5); assay: MgcRacGAP GTPase-activating activity inhibitors, confirmation, biochemical, ADP Hunter fluorescence, primary and confirmatory (AID 624330); format: functional
T4 sequence (Q9H0H5 whole entry): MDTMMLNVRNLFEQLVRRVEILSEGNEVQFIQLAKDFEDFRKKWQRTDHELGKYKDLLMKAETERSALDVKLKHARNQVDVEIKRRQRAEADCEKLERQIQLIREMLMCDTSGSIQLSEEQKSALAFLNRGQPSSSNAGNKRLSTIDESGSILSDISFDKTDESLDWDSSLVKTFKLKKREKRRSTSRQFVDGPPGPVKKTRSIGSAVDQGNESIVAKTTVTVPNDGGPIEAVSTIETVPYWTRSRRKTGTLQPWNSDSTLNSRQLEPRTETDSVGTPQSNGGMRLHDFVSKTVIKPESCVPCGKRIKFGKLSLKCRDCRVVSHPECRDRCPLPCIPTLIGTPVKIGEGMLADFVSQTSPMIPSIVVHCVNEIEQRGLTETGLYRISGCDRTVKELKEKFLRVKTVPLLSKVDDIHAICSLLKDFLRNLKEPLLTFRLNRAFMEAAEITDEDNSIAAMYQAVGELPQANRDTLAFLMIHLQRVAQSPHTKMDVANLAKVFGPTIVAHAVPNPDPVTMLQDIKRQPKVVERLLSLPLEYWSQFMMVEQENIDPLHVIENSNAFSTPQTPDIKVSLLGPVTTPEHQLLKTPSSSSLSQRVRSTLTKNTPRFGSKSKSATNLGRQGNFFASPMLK

[12] = tested on: INS1; assay: beta cell apoptosis inhibitors, cytokine rescue, dose response, luminescence, retest (AID 449756); format: functional, cell-based; settings: Rattus norvegicus;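 further: cell death triggered by IL-1 beta plus TNF-alpha plus IFN-gamma mixture; protective hits raise ATP signal compared with cytokine alone wells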

FAD-linked sulfhydryl oxidase ALR, sequence (P55789 whole entry): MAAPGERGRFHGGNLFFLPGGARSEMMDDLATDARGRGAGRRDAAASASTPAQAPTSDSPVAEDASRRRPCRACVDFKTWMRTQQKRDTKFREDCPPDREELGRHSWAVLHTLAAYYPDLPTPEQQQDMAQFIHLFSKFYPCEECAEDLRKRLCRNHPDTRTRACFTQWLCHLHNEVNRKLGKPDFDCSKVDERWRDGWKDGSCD
Cytochrome P450 2D6, sequence (P10635 whole entry): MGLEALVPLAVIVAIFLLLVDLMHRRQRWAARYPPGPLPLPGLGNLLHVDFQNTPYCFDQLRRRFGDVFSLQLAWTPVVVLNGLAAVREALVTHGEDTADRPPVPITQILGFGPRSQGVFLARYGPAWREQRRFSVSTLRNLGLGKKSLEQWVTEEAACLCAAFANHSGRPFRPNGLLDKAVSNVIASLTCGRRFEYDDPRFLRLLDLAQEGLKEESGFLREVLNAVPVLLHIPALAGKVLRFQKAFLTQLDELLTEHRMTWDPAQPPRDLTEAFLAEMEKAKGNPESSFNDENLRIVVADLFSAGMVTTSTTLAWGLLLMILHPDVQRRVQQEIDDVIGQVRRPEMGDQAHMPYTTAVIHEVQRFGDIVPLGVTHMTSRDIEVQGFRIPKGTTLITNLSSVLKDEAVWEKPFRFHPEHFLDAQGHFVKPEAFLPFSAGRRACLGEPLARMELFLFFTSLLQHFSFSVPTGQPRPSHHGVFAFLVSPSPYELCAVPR

O=C(NNC(=S)NC(=O)c1ccccc1)c1ccc(O)cc1
EC50 [1]: 4.64 µM (active)
EC50 [2]: 52.4 µM (inconclusive)
EC50 [3]: > 150 µM (not active)

O=C(CCc1nc(O)c2ccccc2n1)N1CCN(S(=O)(=O)c2cccc(F)c2)CC1
IC50 [4]: > 79 µM (inactive)

O=C(COC(=O)CCc1nc(O)c2ccccc2n1)Nc1ccc2c(c1)OCO2
IC50 [4]: > 79 µM (inactive)

Oc1ccccc1CNc1cnc2ccccc2c1
AC50 [5]: 37.9 µM (active)

COc1ccc(-c2cc(C#N)nc(N3CCN(C)CC3)n2)cc1
EC50 [6]: 1.95 µM (active)
EC50 [7]: > 30 µM (not active)

CN(Cc1nc(-c2ccccn2)no1)S(=O)(=O)c1ccc(Cl)cc1
EC50 [8]: > 53 µM (inactive)

COCCn1c(C2CCCCC2)nc2sc3ccccc3c(=O)c2c1=O
EC50 [6]: 2.28 µM (active)
EC50 [7]: > 60 µM (not active)

O=C(Nc1nc2ccccc2n1Cc1ccccc1)c1ccc(COc2ccccc2[N+](=O)[O-])o1
AC50 [9]: 17.8 µM (inconclusive)
AC50 [10]: 1.78 µM (inconclusive)
EC50 [6]: 1.25 µM (active)
EC50 [7]: > 60 µM (inconclusive)

CCn1cc(C(=O)NC(=S)Nc2ccccc2Br)cn1
EC50 [1]: > 150 µM (not active)
EC50 [2]: > 150 µM (not active)
EC50 [3]: > 150 µM (not active)

Cn1nnnc1SC1CC(=O)N(c2ccccc2)C1=O (stereo not given)
EC50 [6]: 3.7 µM (active)
EC50 [7]: 7.1 µM (active)

O=C(Nc1ccc(O)cc1)c1cc(S(=O)(=O)N2CCCC2)ccc1Cl
AC50 [5]: 2.49 µM (active)

Cc1cc(C)c(S(=O)(=O)Nc2ccc(O)cc2)c(C)c1
AC50 [5]: 0.694 µM (active)
IC50 [11]: 69.7 µM (active)

CCCc1cc(N2CCN(C(=O)c3ccco3)CC2)n2c(nc3ccccc32)c1C#N
IC50 [4]: > 79 µM (inactive)

Cc1ccc(Cl)cc1N1CCN(Cc2cc3c(cc2O)CCC3)CC1
EC50 [6]: 2.65 µM (active)
EC50 [7]: > 60 µM (not active)

COc1ccc(-n2c(/C=C/c3ccc(O)cc3)nc3ccccc3c2=O)cc1
IC50 [4]: > 79 µM (inactive)

Nc1cc(O)nc(SCc2csc(-c3ccccc3)n2)n1
AC50 [5]: 5.71 µM (active)

Nc1n[nH]c(Nc2ccccc2)n1
AC50 [5]: 1.79 µM (active)

CCC(CC)C(=O)c1c[nH]c(C(=O)NCc2ccccn2)c1
AC50 [12]: > 260 µM (inactive)

COc1ccc2c(c1)NC(C)(C)C=C2C
EC50 [6]: 2.71 µM (active)
EC50 [7]: > 60 µM (not active)

CN1C(=O)C(=C/C=C/Nc2ccccc2)C(=O)N(C)C1=O
EC50 [8]: > 53 µM (inactive)

CCn1c(=N)n(CC(=O)C23CC4CC(CC(C4)C2)C3)c2ccccc21
EC50 [6]: 0.223 µM (active)
EC50 [7]: > 60 µM (not active)
